Data: PubChem BioAssay (NCI)
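Following 48 hours of exposure in 96-well plates, responses at five concentrations were used to interpolate endpoints linearly. GI50: concentration for 50% inhibition of growth. The concentration for full growth arrest is given as TGI.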

Tests used:
Test in all cases: NCI anticancer screen, dose series, 48 h
786-0 renal = system: 786-0 renal
A498 renal = system: A498 renal
A549 NSCLC = system: A549 NSCLC
ACHN renal = system: ACHN renal
BT-549 breast = system: BT-549 breast
CAKI-1 renal = system: CAKI-1 renal
CCRF-CEM leukemia = system: CCRF-CEM leukemia
COLO 205 colon = system: COLO 205 colon
DU-145 prostate = system: DU-145 prostate
EKVX NSCLC = system: EKVX NSCLC
HCC-2998 colon = system: HCC-2998 colon
HCT-116 colon = system: HCT-116 colon
HCT-15 colon = system: HCT-15 colon
HL-60(TB) leukemia = system: HL-60(TB) leukemia
HOP-62 NSCLC = system: HOP-62 NSCLC
HOP-92 NSCLC = system: HOP-92 NSCLC
HS 578T breast = system: HS 578T breast
HT29 colon = system: HT29 colon
IGROV1 ovarian = system: IGROV1 ovarian
K-562 leukemia = system: K-562 leukemia
KM12 colon = system: KM12 colon
LOX IMVI melanoma = system: LOX IMVI melanoma
M14 melanoma = system: M14 melanoma
MALME-3M melanoma = system: MALME-3M melanoma
MCF7 breast = system: MCF7 breast
MDA-MB-231 breast = system: MDA-MB-231 breast
MDA-MB-435 = system: MDA-MB-435
MOLT-4 leukemia = system: MOLT-4 leukemia
NCI-H226 lung = system: NCI-H226 lung
NCI-H23 lung = system: NCI-H23 lung
NCI-H460 lung = system: NCI-H460 lung
NCI-H522 lung = system: NCI-H522 lung
NCI/ADR-RES ovarian = system: NCI/ADR-RES ovarian
OVCAR-3 ovarian = system: OVCAR-3 ovarian
OVCAR-4 ovarian = system: OVCAR-4 ovarian
OVCAR-5 ovarian = system: OVCAR-5 ovarian
OVCAR-8 ovarian = system: OVCAR-8 ovarian
PC-3 prostate = system: PC-3 prostate
RPMI-8226 leukemia = system: RPMI-8226 leukemia
RXF 393 renal = system: RXF 393 renal
SF-268 CNS = system: SF-268 CNS
SF-295 CNS = system: SF-295 CNS
SF-539 CNS = system: SF-539 CNS
SK-MEL-28 melanoma = system: SK-MEL-28 melanoma
SK-MEL-5 melanoma = system: SK-MEL-5 melanoma
SN12C renal = system: SN12C renal
SNB-19 CNS = system: SNB-19 CNS
SNB-75 CNS = system: SNB-75 CNS
SW-620 colon = system: SW-620 colon
T-47D breast = system: T-47D breast
TK-10 renal = system: TK-10 renal
U251 CNS = system: U251 CNS
UACC-257 melanoma = system: UACC-257 melanoma
UACC-62 melanoma = system: UACC-62 melanoma
UO-31 renal = system: UO-31 renal

Cc1cc(S(=O)(=O)Nc2nc3ccsc3c(=O)n2Cc2ccccc2)c(S)cc1Cl
GI50 (786-0 renal): 32.2 µM
TGI (786-0 renal): > 100 µM
GI50 (A498 renal): 14.2 µM
TGI (A498 renal): 49.3 µM
GI50 (A549 NSCLC): 34.5 µM
TGI (A549 NSCLC): > 100 µM
GI50 (ACHN renal): 57.5 µM
TGI (ACHN renal): > 100 µM
GI50 (BT-549 breast): 28 µM
TGI (BT-549 breast): 89.8 µM
GI50 (CAKI-1 renal): 41.2 µM
TGI (CAKI-1 renal): > 100 µM
GI50 (CCRF-CEM leukemia): 34 µM
TGI (CCRF-CEM leukemia): > 100 µM
GI50 (COLO 205 colon): 37.5 µM
TGI (COLO 205 colon): > 100 µM
GI50 (DU-145 prostate): 34.6 µM
TGI (DU-145 prostate): > 100 µM
GI50 (EKVX NSCLC): 21.8 µM
TGI (EKVX NSCLC): 77.3 µM
GI50 (HCC-2998 colon): 24 µM
TGI (HCC-2998 colon): 43.7 µM
GI50 (HCT-116 colon): 19.2 µM
TGI (HCT-116 colon): 37.7 µM
GI50 (HCT-15 colon): 74.5 µM
TGI (HCT-15 colon): > 100 µM
GI50 (HL-60(TB) leukemia): > 100 µM
TGI (HL-60(TB) leukemia): > 100 µM
GI50 (HOP-62 NSCLC): 22.7 µM
TGI (HOP-62 NSCLC): 46.6 µM
GI50 (HOP-92 NSCLC): 87.6 µM
TGI (HOP-92 NSCLC): > 100 µM
GI50 (HS 578T breast): 42.3 µM
TGI (HS 578T breast): > 100 µM
GI50 (HT29 colon): 43.7 µM
TGI (HT29 colon): > 100 µM
GI50 (IGROV1 ovarian): 43.1 µM
TGI (IGROV1 ovarian): > 100 µM
GI50 (K-562 leukemia): 67.9 µM
TGI (K-562 leukemia): > 100 µM
GI50 (KM12 colon): 20.1 µM
TGI (KM12 colon): 48.2 µM
GI50 (LOX IMVI melanoma): 31.1 µM
TGI (LOX IMVI melanoma): 65.3 µM
GI50 (M14 melanoma): 21.8 µM
TGI (M14 melanoma): 49.6 µM
GI50 (MALME-3M melanoma): 21.2 µM
TGI (MALME-3M melanoma): 50.1 µM
GI50 (MCF7 breast): 34.4 µM
TGI (MCF7 breast): > 100 µM
GI50 (MDA-MB-231 breast): 30.3 µM
TGI (MDA-MB-231 breast): 72.5 µM
GI50 (MDA-MB-435): 29.3 µM
TGI (MDA-MB-435): 91.6 µM
GI50 (MOLT-4 leukemia): 37.9 µM
TGI (MOLT-4 leukemia): > 100 µM
GI50 (NCI-H226 lung): 34.5 µM
TGI (NCI-H226 lung): 93.6 µM
GI50 (NCI-H23 lung): 24.9 µM
TGI (NCI-H23 lung): 57.5 µM
GI50 (NCI-H460 lung): 23.6 µM
TGI (NCI-H460 lung): 71 µM
GI50 (NCI-H522 lung): 37 µM
TGI (NCI-H522 lung): > 100 µM
GI50 (NCI/ADR-RES ovarian): 67.8 µM
TGI (NCI/ADR-RES ovarian): > 100 µM
GI50 (OVCAR-3 ovarian): 24.3 µM
TGI (OVCAR-3 ovarian): 53 µM
GI50 (OVCAR-4 ovarian): 44 µM
TGI (OVCAR-4 ovarian): > 100 µM
GI50 (OVCAR-5 ovarian): 32.9 µM
TGI (OVCAR-5 ovarian): 97.5 µM
GI50 (OVCAR-8 ovarian): 44.5 µM
TGI (OVCAR-8 ovarian): > 100 µM
GI50 (PC-3 prostate): 40.4 µM
TGI (PC-3 prostate): > 100 µM
GI50 (RPMI-8226 leukemia): 33.4 µM
TGI (RPMI-8226 leukemia): > 100 µM
GI50 (RXF 393 renal): 44 µM
TGI (RXF 393 renal): > 100 µM
GI50 (SF-268 CNS): 30.6 µM
TGI (SF-268 CNS): > 100 µM
GI50 (SF-295 CNS): 26.8 µM
TGI (SF-295 CNS): 98.7 µM
GI50 (SF-539 CNS): 28.1 µM
TGI (SF-539 CNS): 70.3 µM
GI50 (SK-MEL-28 melanoma): 25 µM
TGI (SK-MEL-28 melanoma): 57.2 µM
GI50 (SK-MEL-5 melanoma): 12.5 µM
TGI (SK-MEL-5 melanoma): 34.2 µM
GI50 (SN12C renal): 31.1 µM
TGI (SN12C renal): 58.8 µM
GI50 (SNB-19 CNS): 32.4 µM
TGI (SNB-19 CNS): > 100 µM
GI50 (SNB-75 CNS): > 100 µM
TGI (SNB-75 CNS): > 100 µM
GI50 (SW-620 colon): 34.1 µM
TGI (SW-620 colon): > 100 µM
GI50 (T-47D breast): 52.4 µM
TGI (T-47D breast): > 100 µM
GI50 (TK-10 renal): 29.7 µM
TGI (TK-10 renal): 91.1 µM
GI50 (U251 CNS): 35.9 µM
TGI (U251 CNS): > 100 µM
GI50 (UACC-257 melanoma): 47.8 µM
TGI (UACC-257 melanoma): > 100 µM
GI50 (UACC-62 melanoma): 21.5 µM
TGI (UACC-62 melanoma): 44.4 µM
GI50 (UO-31 renal): 86 µM
TGI (UO-31 renal): > 100 µM
